Assay results reported in the supplement of paper PMC5579334.

What was measured:
[1] = system: HS-PSS; assay: relative IC50 (inflection point of fitted dose-response curve, CellTox-Green cytotoxicity, 72 h; top asymptote may be below 50%); higher = less potent
Summary of the method: (§1)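 MPNST cell lines and primary human Schwann cells were grown for 72 h at 37 °C in 384-well plates containing five 10-fold compound dilutions. CellTox-Green, added before seeding at a final 1:1000 dilution, gave fluorescence from DNA released by disrupted cells, and signals were scaled to vehicle and positive-control wells. Curves were fitted with a four-parameter logistic model. Drug sensitivity score and relative IC50 come from these fits, with IC50 censored at the top concentration.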

[2] = system: HSC1; assay: as above
Summary of the method: as §1

[3] = system: HSC2; assay: as above
Summary of the method: as §1

[4] = system: S1507-2; assay: as above
Summary of the method: as §1

[5] = system: ST8814; assay: as above
Summary of the method: as §1

[6] = system: STS26T; assay: as above
Summary of the method: as §1

[7] = system: HSC1; assay: relative IC50 (inflection point of fitted dose-response curve, CellTiter-Glo viability, 72 h; top asymptote may be below 50% inhibition); higher = less potent
Summary of the method: (§2)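 For this screen, 384-well plates were preprinted with each compound at five concentrations in 10-fold steps and seeded with MPNST cell lines or primary human Schwann cells at 750–1000 cells per well. Incubation lasted 72 h at 37 °C, 5% CO2, and CellTiter-Glo ATP luminescence, scaled between vehicle and positive-control wells and averaged over duplicates where available, served as viability. Logistic fits with four parameters were applied. Relative IC50 (censored at the top concentration) and drug sensitivity score derive from these fits, and percent inhibition is at the top concentration.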

[8] = system: HSC2; assay: as above
Summary of the method: as §2

[9] = system: S1507-2; assay: as above
Summary of the method: as §2

[10] = system: S462; assay: as above
Summary of the method: as §2

[11] = system: ST8814; assay: as above
Summary of the method: as §2

[12] = system: STS26T; assay: as above
Summary of the method: as §2

[13] = system: YST-1; assay: as above
Summary of the method: as §2

[14] = system: HS-Sch-2; assay: as above
Summary of the method: as §2

[15] = system: HS-PSS; assay: as above
Summary of the method: as §2

| SMILES | relative IC50 [1] | relative IC50 [2] | relative IC50 [3] | relative IC50 [4] | relative IC50 [5] | relative IC50 [6] | relative IC50 [7] | relative IC50 [8] | relative IC50 [9] | relative IC50 [10] | relative IC50 [11] | relative IC50 [12] | relative IC50 [13] | relative IC50 [14] | relative IC50 [15] |
| --- | --- | --- | --- | --- | --- | --- | --- | --- | --- | --- | --- | --- | --- | --- | --- |
| CC(C)Cn1cnc2c(N)nc3ccccc3c21 [Imiquimod] | > 2.5 µM | > 2.5 µM | > 2.5 µM | > 2.5 µM | > 2.5 µM | > 2.5 µM | > 2.5 µM | > 2.5 µM | > 2.5 µM | > 2.5 µM | > 2.5 µM | > 2.5 µM | > 2.5 µM |  |  |
| O=C(Nc1ccncc1)C(=O)c1cn(Cc2ccc(Cl)cc2)c2ccccc12 [Indibulin] | > 10 µM | 2 µM | 1.58 µM | 0.494 µM | 0.43 µM | 0.146 µM | 0.361 µM | 0.718 µM | 0.241 µM | 0.334 µM | 0.312 µM | 0.164 µM | 0.53 µM | 0.739 µM |  |
| N#Cc1ccc(C(c2ccc(C#N)cc2)n2cncn2)cc1 [Letrozole] | > 10 µM | > 10 µM | > 10 µM | > 10 µM | > 10 µM | > 10 µM | > 10 µM | > 10 µM | > 10 µM | > 10 µM | > 10 µM | > 10 µM | > 10 µM |  |  |
| Nc1nc(OCc2cc(Br)cs2)c2[nH]cnc2n1 [Lomeguatrib] | > 10 µM | > 10 µM | > 10 µM | > 10 µM | > 10 µM | > 10 µM | > 10 µM | > 10 µM | > 10 µM | > 10 µM | > 10 µM | > 10 µM | > 10 µM | > 10 µM |  |
| CC(=O)O[C@]1(C(C)=O)CC[C@H]2[C@@H]3C=C(C)C4=CC(=O)CC[C@]4(C)[C@H]3CC[C@@]21C [Megestrol] |  | > 10 µM | > 10 µM | > 10 µM | > 10 µM | > 10 µM | > 10 µM | > 10 µM | > 10 µM | > 10 µM | > 10 µM | > 10 µM |  |  |  |
| CCN(CC)CCCC(C)Nc1c2ccc(Cl)cc2nc2ccc(OC)cc12 (stereo unspecified) [Mepacrine aq] |  | 0.956 µM | 1.17 µM | 2.2 µM | 2.91 µM | 2.37 µM | 1.23 µM | 1.23 µM | 1.07 µM | 0.918 µM | 0.929 µM | 1.32 µM |  |  |  |
| CCNC(=O)c1noc(-c2cc(C(C)C)c(O)cc2O)c1-c1ccc(CN2CCOCC2)cc1 [NVP-AUY922] |  | 0.0232 µM | 0.0204 µM | 0.0139 µM | 0.0679 µM | 0.0421 µM | 0.0143 µM | 0.012 µM | 0.0183 µM | 0.0217 µM | 0.0229 µM | 0.0229 µM |  |  |  |
| c1ccc2c(CCNc3ccc(Nc4ccncc4)cc3)c[nH]c2c1 [Serdemetan] | 3.24 µM |  | > 10 µM | 2.81 µM | 0.865 µM | 3.31 µM | 1.37 µM | 1.35 µM | 1.62 µM | 1.15 µM | 0.887 µM | 2.44 µM | 0.876 µM | 3.74 µM | 2.71 µM |
